In BindingDB's records for doi:10.1021/jm00195a008 (1979):

Biological target: DNA-directed RNA polymerase subunit alpha/beta/beta'/omega (Escherichia coli (strain K12), UniProt P0A7Z4+P0A800+P0A8T7+P0A8V2)
Assay: Inhibition of Escherichia coli DNA-dependent RNA polymerase

DNA-directed RNA polymerase subunit alpha/beta/beta'/omega, sequence (P0A8V2 whole entry): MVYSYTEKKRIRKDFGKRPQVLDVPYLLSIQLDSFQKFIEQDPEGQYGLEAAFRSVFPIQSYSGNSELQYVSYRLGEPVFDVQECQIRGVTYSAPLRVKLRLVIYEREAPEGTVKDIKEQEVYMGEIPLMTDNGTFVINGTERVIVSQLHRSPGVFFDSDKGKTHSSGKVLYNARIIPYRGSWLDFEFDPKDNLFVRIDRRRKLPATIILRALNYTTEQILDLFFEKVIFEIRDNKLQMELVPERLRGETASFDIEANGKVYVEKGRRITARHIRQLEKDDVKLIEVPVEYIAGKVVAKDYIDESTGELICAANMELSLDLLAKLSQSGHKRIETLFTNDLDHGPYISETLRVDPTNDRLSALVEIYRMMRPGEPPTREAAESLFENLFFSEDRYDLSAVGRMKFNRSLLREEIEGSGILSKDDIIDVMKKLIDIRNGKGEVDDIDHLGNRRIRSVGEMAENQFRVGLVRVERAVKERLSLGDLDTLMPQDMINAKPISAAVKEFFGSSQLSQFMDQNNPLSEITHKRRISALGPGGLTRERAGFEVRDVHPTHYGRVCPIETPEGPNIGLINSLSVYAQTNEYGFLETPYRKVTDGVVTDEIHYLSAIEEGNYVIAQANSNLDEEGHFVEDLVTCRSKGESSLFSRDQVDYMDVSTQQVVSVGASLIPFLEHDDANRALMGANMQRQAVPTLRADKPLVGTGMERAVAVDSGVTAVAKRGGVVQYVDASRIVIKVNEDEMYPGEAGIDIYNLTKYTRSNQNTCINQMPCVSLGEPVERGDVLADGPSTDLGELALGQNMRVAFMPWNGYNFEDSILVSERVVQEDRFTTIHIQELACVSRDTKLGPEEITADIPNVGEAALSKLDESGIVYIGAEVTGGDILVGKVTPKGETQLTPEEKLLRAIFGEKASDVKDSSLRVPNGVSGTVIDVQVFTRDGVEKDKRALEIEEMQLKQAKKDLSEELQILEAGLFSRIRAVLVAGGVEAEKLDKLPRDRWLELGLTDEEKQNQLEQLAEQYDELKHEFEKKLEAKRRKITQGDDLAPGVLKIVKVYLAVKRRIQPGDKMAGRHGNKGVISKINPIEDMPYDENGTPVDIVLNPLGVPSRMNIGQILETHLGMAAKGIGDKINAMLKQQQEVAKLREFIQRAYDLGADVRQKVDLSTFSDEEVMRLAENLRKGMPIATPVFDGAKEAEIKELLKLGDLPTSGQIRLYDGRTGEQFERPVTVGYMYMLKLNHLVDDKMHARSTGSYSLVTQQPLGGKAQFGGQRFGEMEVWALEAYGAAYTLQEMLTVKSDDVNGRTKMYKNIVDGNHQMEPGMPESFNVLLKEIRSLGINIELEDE
DNA-directed RNA polymerase subunit alpha/beta/beta'/omega, sequence (P0A7Z4 whole entry): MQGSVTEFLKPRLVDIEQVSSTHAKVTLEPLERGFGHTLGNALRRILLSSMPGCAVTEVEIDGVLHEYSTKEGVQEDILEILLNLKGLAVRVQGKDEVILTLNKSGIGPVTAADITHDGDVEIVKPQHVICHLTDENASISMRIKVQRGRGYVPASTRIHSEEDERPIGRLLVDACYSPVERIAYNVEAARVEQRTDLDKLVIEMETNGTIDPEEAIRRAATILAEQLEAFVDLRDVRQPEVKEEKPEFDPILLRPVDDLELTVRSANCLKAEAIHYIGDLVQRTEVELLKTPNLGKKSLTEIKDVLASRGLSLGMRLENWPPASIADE
DNA-directed RNA polymerase subunit alpha/beta/beta'/omega, sequence (P0A8T7 whole entry): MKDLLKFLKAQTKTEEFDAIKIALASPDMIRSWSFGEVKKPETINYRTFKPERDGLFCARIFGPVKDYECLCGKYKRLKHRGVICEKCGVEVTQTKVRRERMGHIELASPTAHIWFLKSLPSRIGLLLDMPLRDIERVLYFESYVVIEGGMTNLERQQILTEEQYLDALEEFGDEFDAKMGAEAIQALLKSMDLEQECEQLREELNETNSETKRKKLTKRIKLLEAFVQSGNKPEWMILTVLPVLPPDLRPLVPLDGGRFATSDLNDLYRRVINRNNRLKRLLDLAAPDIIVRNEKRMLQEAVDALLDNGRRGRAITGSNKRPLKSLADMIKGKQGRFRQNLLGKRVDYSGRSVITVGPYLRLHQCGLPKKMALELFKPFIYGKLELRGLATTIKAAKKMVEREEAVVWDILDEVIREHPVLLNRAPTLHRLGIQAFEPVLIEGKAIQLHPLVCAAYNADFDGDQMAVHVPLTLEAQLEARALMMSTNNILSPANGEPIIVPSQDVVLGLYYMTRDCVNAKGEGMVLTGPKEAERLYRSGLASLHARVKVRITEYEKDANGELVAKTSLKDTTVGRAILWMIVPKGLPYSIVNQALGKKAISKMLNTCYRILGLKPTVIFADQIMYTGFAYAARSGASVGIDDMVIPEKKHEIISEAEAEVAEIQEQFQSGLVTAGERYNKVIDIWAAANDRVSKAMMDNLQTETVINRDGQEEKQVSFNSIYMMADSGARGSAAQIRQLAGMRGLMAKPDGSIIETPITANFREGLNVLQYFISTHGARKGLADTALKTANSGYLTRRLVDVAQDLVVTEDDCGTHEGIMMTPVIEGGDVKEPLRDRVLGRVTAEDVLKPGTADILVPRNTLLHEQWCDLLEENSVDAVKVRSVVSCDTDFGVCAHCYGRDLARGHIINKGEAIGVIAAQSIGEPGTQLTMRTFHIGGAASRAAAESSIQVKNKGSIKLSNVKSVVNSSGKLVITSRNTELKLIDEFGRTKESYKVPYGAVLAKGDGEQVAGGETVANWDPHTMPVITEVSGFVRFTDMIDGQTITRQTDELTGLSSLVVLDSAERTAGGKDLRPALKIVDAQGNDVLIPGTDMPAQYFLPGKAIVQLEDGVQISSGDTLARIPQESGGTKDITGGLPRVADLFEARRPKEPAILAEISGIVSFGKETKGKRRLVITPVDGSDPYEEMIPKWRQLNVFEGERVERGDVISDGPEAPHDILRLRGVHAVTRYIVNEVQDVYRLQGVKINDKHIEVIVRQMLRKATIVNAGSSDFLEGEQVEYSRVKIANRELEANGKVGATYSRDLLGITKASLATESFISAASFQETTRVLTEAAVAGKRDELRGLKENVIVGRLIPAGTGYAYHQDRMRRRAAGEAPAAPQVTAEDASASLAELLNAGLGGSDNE
DNA-directed RNA polymerase subunit alpha/beta/beta'/omega, sequence (P0A800 whole entry): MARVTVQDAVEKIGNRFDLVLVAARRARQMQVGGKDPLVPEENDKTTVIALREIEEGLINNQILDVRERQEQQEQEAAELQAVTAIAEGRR

**Q.** For `Cc1c2oc3c(C)ccc(C(=O)N[C@@H]4C(=O)N[C@H](C(C)C)C(=O)N5CCC[C@H]5C(=O)N(C)CC(=O)N(C)[C@@H](C(C)C)C(=O)O[C@@H]4C)c3nc-2c(C(=O)N[C@@H]2C(=O)N[C@H](C(C)C)C(=O)N3CCC[C@H]3C(=O)N(C)CC(=O)N(C)[C@@H](C(C)C)C(=O)O[C@@H]2C)c(NC2CC(C)(C)[N+]([O-])C(C)(C)C2)c1=O`, which IC50 is on record?
**A.** 2.8 µM
